Laboratory results: patent US20100222396A1 (Novartis AG, priority 2009, published 2010)

Experiments:
[1] = biological target: T1, human orexin 1 receptor (hOx1R) (Homo sapiens, UniProt O43613); assay: Calcium accumulation in cells (FLIPR), antagonism of orexin A, hOx1R; assay type: cell-based; conditions: for Kd: cells expressing human orexin 1 receptor, IC50 vs orexin A converted by Cheng and Prusoff correction; for inhibition at 10 µM: measured at a concentration of 10 μM of compound (cells marked ^a)
T1 construct: expressed in transfected cells
T1 sequence (O43613 1-425): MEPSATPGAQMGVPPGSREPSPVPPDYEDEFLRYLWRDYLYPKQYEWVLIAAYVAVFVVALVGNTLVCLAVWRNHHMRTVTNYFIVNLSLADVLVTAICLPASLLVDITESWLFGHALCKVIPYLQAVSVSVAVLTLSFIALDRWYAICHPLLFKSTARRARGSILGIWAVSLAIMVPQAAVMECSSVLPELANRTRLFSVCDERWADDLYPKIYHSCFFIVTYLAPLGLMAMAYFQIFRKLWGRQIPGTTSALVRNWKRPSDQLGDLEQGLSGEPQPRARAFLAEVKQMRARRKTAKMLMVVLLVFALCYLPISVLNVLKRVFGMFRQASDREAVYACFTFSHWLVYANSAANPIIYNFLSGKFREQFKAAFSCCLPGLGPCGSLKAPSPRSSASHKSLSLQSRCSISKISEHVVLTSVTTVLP
Method: (§1) Cells expressing human orexin 1 or human orexin 2 receptors, were seeded at 8,000 cells/well in 384 well black-walled clear bottom, poly-D-lysine coated plates. After 24 h, the medium was removed and cells were washed once with phosphate buffered saline and serum-deprived overnight in assay buffer (130 mM NaCl, 5.4 mM KCl, 1.8 mM CaCl2, 0.8 mM MgSO4, 0.9 mM NaH2PO4, 25 mM glucose, 20 mM HEPES, pH 7.4) containing bovine serum albumin (1% w/v).
(§2) On the day of the experiment, the cells seeded in black plates were treated with assay buffer containing the Ca^2+ sensitive fluorescent dye Fluo-4-AM (2 μM), and probenecid (0.1 mM). After 1 h plates were washed twice with, and resuspended in, assay buffer containing probenecid (0.1 mM) using a multi plate washer. The plates were placed into a FLIPR II (Fluorometric Imaging Plate Reader, Molecular Devices, Sunnyvale, Calif., USA) and baseline fluorescence (fluorescence light units, FLU) was measured (5 measurements, 2 S each; laser excitation 488 nm at 0.6-1 W, CCD camera exposure 0.4 s) before addition of buffer alone (basal) or containing test compounds (either compound of formula I alone, agonist alone or agonist in the presence of various concentrations of compounds of formula I). Fluorescence measurements were then continued every 1 S for 120 S followed by every 4 S for 240 S.
(§3) The measurements were typically made in two sequences:
(§4) Compounds of formula I were tested usually in a concentration range from 10^−9 M to 10^−5 M.
(§5) In the second round, performed one hour later (to allow for equilibration), Orexin A was tested either in the absence (calibration curves, Orexin A agonist controls) or in the presence of compounds of formula I to determine antagonism.

[2] = biological target: T2, human orexin 2 receptor (hOx2R) (Homo sapiens, UniProt O43614); assay: Radioligand binding assay ([125I]orexin A competition), hOx2R; conditions: CHO or HEK cell membranes, 1 h room temperature
T2 construct: expressed in transfected cells
T2 sequence (O43614 1-444): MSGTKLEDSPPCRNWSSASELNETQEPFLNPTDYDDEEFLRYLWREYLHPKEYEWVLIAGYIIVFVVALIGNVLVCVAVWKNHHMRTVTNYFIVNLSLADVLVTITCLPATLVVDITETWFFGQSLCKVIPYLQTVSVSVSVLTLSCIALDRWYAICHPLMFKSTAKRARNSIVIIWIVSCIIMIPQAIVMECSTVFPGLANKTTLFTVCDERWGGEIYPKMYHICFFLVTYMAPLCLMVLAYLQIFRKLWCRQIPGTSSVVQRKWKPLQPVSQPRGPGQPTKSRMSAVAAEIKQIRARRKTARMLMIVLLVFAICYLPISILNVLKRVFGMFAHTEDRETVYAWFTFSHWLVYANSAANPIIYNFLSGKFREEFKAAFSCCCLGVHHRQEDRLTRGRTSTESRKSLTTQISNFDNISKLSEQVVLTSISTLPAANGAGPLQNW
Method: (§6) For crude cell membrane preparations, cells (CHO, Chinese hamster ovary or HEK, human embryonic kidney) expressing human orexin 1 or human orexin 2 receptors, were washed with HEPES (10 mM, pH 7.5), scraped off the culture plates with the same buffer, and centrifuged at 4° C. for 5 min at 2500×g. The cell pellet was either stored at −80° C. or used directly. Before the experiments, cell membranes were re-suspended in binding assay buffer (10 mM HEPES, 0.5% (w/v) bovine serum albumin, pH 7.5) by homogenisation with a Polytron homogeniser at 50 Hz for 20 s. Cell membranes were also used as made available by commercial providers.
(§7) In initial saturation experiments (to calculate Bmax), cell homogenates (150 μl) were incubated with 25-300 pM of the radioligand ([^125I]orexin A, 50 μl), 8 concentrations in triplicates in the presence or absence Orexin A (1 μM, 50 μl) to define non specific binding. Bound radioactivity was measured, and data were analysed with the program XLFIT or Graphpad Prism. Protein concentration was determined according to the Bradford/BioRad Protein Assay Kit.
(§8) In competition experiments, cell homogenates (150 μl) were incubated in assay buffer (10 mM HEPES, pH 7.5, 0.5% (w/v) bovine serum albumin, 5 mM MgCl2, […], and tween 0.05%) for 1 h at room temperature with about […] of the radioligand ([^125I]orexin A, 2100 Ci/mmole, 50 μl), and with various concentrations of compounds of the invention (50 μl) in triplicates; non-specific binding was determined in the presence of Orexin A (1 μM). Reactions were terminated by vacuum filtration, 3 washes of ice cold wash buffer (Tris-HCl pH 7.4/10 mM, with NaCl 154 mM). Competition data is expressed in Table 1 as Kd [μM].

[3] = biological target: T2, human orexin 2 receptor (hOx2R); assay: Calcium accumulation in cells (FLIPR), antagonism of orexin A, hOx2R; assay type: cell-based; conditions: for Kd: cells expressing human orexin 2 receptor, IC50 vs orexin A converted by Cheng and Prusoff correction; for inhibition at 10 µM: measured at a concentration of 10 μM of compound (cells marked ^a)
Method: as §1, §2, §3, §4, §5

[4] = biological target: T1, human orexin 1 receptor (hOx1R); assay: Radioligand binding assay ([125I]orexin A competition), hOx1R; conditions: CHO or HEK cell membranes, 1 h room temperature
Method: as §6, §7, §8

Compound	Kd [1]	Kd [2]	Kd [3]	Kd [4]	inhibition at 10 µM [1]	inhibition at 10 µM [3]
CN(C(=O)c1ccc2c(c1)OCO2)[C@H](CCNC(=O)c1cc2ccccc2n1C)Cc1ccccc1 [Example 75, 1-Methyl-1H-indole-2-carboxylic acid {(S)-3-[(benzo[1,3]dioxole-5-carbonyl)-methyl-amino]-4-phenyl-butyl}-amide]	267 nM	473 nM	31 nM	705 nM	–	–
CN(C(=O)c1ccccc1)[C@H](CCNC(=O)c1ccccn1)Cc1ccc(Cl)cc1 [Example 70, Pyridine-2-carboxylic acid [(S)-3-(benzoyl-methyl-amino)-4-(4-chloro-phenyl)-butyl]-amide]	–	8310 nM	–	> 10000 nM	0%	29%
CN(C(=O)c1cccc2[nH]ccc12)[C@H](CCNC(=O)c1nc2ccccc2n1C)Cc1ccccc1 [Example 3, 1-Methyl-1H-benzoimidazole-2-carboxylic acid {(S)-3-[(1H-indole-4-carbonyl)-methyl-amino]-4-phenyl-butyl}-amide]	48 nM	10 nM	3 nM	17 nM	–	–
CN(C(=O)c1ccc2c(ccn2C)c1)[C@H](CCNC(=O)c1ccccn1)Cc1ccccc1 [Example 84, 1-Methyl-1H-indole-5-carboxylic acid {(S)-1-benzyl-3-[(pyridine-2-carbonyl)-amino]-propyl}-methyl-amide]	50 nM	1330 nM	809 nM	30 nM	–	–
CN(C(=O)c1ccccc1)[C@@H](Cc1ccccc1)[C@@H](O)CNC(=O)c1ccccn1 [Example 95, Pyridine-2-carboxylic acid [(2S,3S)-3-(benzoyl-methyl-amino)-2-hydroxy-4-phenyl-butyl]-amide]	3430 nM	59 nM	140 nM	3440 nM	–	–
CN(C(=O)c1cccc2c1OCCO2)[C@H](CCNC(=O)c1ccccn1)Cc1ccccc1 [Example 54, Pyridine-2-carboxylic acid {(S)-3-[(2,3-dihydro-benzo[1,4]dioxine-5-carbonyl)-methyl-amino]-4-phenyl-butyl}-amide]	–	1730 nM	958 nM	> 10000 nM	9%	–
CN(C(=O)c1ccccc1)[C@H](CCNC(=O)c1ccnc2ccccc12)Cc1ccccc1 [Example 2, Quinoline-4-carboxylic acid [(S)-3-(benzoyl-methyl-amino)-4-phenyl-butyl]-amide]	–	4970 nM	–	> 10000 nM	4%	19%
CCN(C(=O)c1ccc2c(c1)OCO2)[C@H](CCNC(=O)c1ccccn1)Cc1ccccc1 [Example 8, Pyridine-2-carboxylic acid {(S)-3-[(benzo[1,3]dioxole-5-carbonyl)-ethyl-amino]-4-phenyl-butyl}-amide]	211 nM	46 nM	32 nM	270 nM	–	–
CN(C(=O)c1cccc2ccccc12)[C@H](CCNC(=O)c1ccccn1)Cc1ccc(Cl)cc1 [Example 35, Pyridine-2-carboxylic acid {(S)-4-(4-chloro-phenyl)-3-[methyl-(naphthalene-1-carbonyl)-amino]-butyl}-amide]	80 nM	468 nM	9 nM	1330 nM	–	–
CN(C(=O)c1ccc2c(c1)OCO2)[C@H](CCNC(=O)c1cc2ccccc2[nH]1)Cc1ccccc1 [Example 14, 1H-Indole-2-carboxylic acid {(S)-3-[(benzo[1,3]dioxole-5-carbonyl)-methyl-amino]-4-phenyl-butyl}-amide]	609 nM	521 nM	106 nM	1070 nM	–	–
CN(C(=O)c1ccc2c(c1)OCO2)[C@H](CCNC(=O)c1cccn1C)Cc1ccccc1 [Example 76]	376 nM	4 nM	1 nM	94 nM	–	–
CN(C(=O)c1cccc2ccccc12)[C@H](CCNC(=O)c1nc2ccccc2n1C)Cc1ccc(Cl)cc1 [Example 26, 1-Methyl-1H-benzoimidazole-2-carboxylic acid {(S)-4-(4-chloro-phenyl)-3-[methyl-(naphthalene-1-carbonyl)-amino]-butyl}-amide]	122 nM	308 nM	10 nM	3280 nM	–	–
CN(C(=O)c1cccc2ccn(C)c12)[C@H](CCNC(=O)c1ccccn1)Cc1ccccc1 [Example 36, 1-Methyl-1H-indole-7-carboxylic acid {(S)-1-benzyl-3-[(pyridine-2-carbonyl)-amino]-propyl}-methyl-amide]	–	468 nM	565 nM	853 nM	37%	–
CN(C(=O)c1ccc2ccccc2c1)[C@H](CCNC(=O)c1ccccn1)Cc1ccccc1 [Example 21, Pyridine-2-carboxylic acid {(S)-3-[methyl-(naphthalene-2-carbonyl)-amino]-4-phenyl-butyl}-amide]	70 nM	203 nM	174 nM	62 nM	–	–
CN(C(=O)c1cccc2cc[nH]c12)[C@H](CCNC(=O)c1ccccn1)Cc1ccccc1 [Example 38, 1H-Indole-7-carboxylic acid {(S)-1-benzyl-3-[(pyridine-2-carbonyl)-amino]-propyl}-methyl-amide]	35 nM	590 nM	162 nM	86 nM	–	–
Cc1cccc(C(=O)N(C)[C@H](CCNC(=O)c2cccn2C)Cc2ccccc2)c1 [Example 119, 1-Methyl-1H-pyrrole-2-carboxylic acid {(8)-3-[methyl-(3-methyl-benzoyl)-amino]-4-phenyl-butyl}-amide]	534 nM	14 nM	4 nM	249 nM	–	–
CCOc1cc(OCC)cc(C(=O)N(C)[C@H](CCNC(=O)c2cccn2C)Cc2ccccc2)c1 [Example 122, 1-Methyl-1H-pyrrole-2-carboxylic acid {(S)-3-[(3,5-diethoxy-benzoyl)-methyl-amino]-4-phenyl-butyl}-amide]	773 nM	21 nM	24 nM	333 nM	–	–
